What was measured:
seizures [1] = settings: Consroe et al., 1977; cited from earlier work
seizures in mice = settings: after pro-convulsant drugs or an electric current; cited from earlier work
seizures [2] = settings: of eight adult patients with generalized epilepsy; cited from earlier work
seizures [3] = settings: twelve institutionalized adult patients; 200 mg/day pure CBD; open label; cited from earlier work
[4] = Solubility of the drug substance in water; type: physicochemical
Excerpt: Sesame oil was selected as an excipient to solubilize the drug substance.

absence seizures = assay: Expanded access program: absence seizures in children and young adults with treatment-resistant epilepsy; type: in vivo, human; settings: 12 weeks of treatment vs 4-week baseline; n = 28; CBD 5 up to 25 mg/kg/day added to baseline AED
Experimental: (§1) The terms “50% responder” and “50% reduction in seizure” are both terms used in clinical studies. In the present application the terms define the percentage of subjects that experienced a greater than or equal to 50% reduction in the number of seizures during treatment with CBD in comparison to the number experienced during the baseline period before the CBD was administered.
(§2) Of 137 children and young adults with severe, childhood onset treatment-resistant epilepsy (TRE), forty-two suffered from epilepsy that was characterised by absence seizures. These subjects were tested with a highly purified extract of cannabidiol (CBD) obtained from a cannabis plant. All subjects presented with absence type seizures, often in addition to other generalised and/or focal seizures. The participants in the study were part of an expanded access compassionate use program for CBD.
The epileptic syndromes that these patients suffered from were as follows: Lennox-Gastaut Syndrome; Myoclonic Absence Epilepsy; Tuberous Sclerosis Complex; Dravet Syndrome; Doose Syndrome; Jeavons Syndrome; CDKL5; Dup15q; Neuronal ceroid lipofuscinoses (NCL) and brain abnormalities. […]

seizures [5] = settings: 200 mg/day pure CBD, cited from earlier work
seizures [6] = settings: previous studies in animals; multiple species and models; cited from earlier work
total seizures = assay: Expanded access program: total seizures in all subjects treated; type: in vivo, human; settings: 12 weeks of treatment, n = 137
Experimental: as §1, §2
(§3) All patients entered a baseline period of 4 weeks when parents/caregivers kept prospective seizure diaries, noting all countable seizure types.
The patients then received a highly purified CBD extract (greater than 98% CBD w/w) in sesame oil, of known and constant composition, at a dose of 5 mg/kg/day in addition to their baseline anti-epileptic drug (AED) regimen.
Laboratory testing for hematologic, liver, kidney function, and concomitant AED levels was performed at baseline, and after every 4 weeks of CBD therapy.

[7] = system: myoclonic absence seizures; assay: Expanded access program: myoclonic absence seizures in children and young adults with treatment-resistant epilepsy; type: in vivo, human; settings: 12 weeks of treatment vs 4-week baseline; head n = 10; CBD 5 up to 25 mg/kg/day added to baseline AED
Experimental: as §1
as §2, with “epilepsy (TRE), ten suffered from” for “epilepsy (TRE), forty-two suffered from”, “characterised by myoclonic absence seizures.” for “characterised by absence seizures.”, “presented with myoclonic absence type” for “presented with absence type”
The epileptic syndromes that these patients suffered from were as follows: Myoclonic Absence Epilepsy; Doose Syndrome; and epilepsy of unknown cause.
as §3
The patients then received a highly purified CBD extract (greater than 98% CBD w/w) in sesame oil, of known and constant composition, at a dose of 5 mg/kg/day in addition to their baseline anti-epileptic drug (AED) regimen. […]

SMILES	effect on convulsions (seizures [1])	prevention of seizures (seizures in mice)	patients with marked reduction of seizures (seizures [2])	control of seizures (seizures [3])	solubility in water [4]	<50% reduction in seizures, absence seizures (proportion of patients) (absence seizures)	patients who became seizure free (seizures [5]; of four adult patients)	seizure frequency in the remainder of patients (seizures [5]; remaining two of four adult patients)	anticonvulsant efficacy (seizures [6])	<50% reduction in seizures, total seizures (proportion of patients) (total seizures)	<50% reduction in seizures, myoclonic absence seizures (proportion of patients) [7]
CCCCCc1cc(O)c2c(c1)OC(C)(C)[C@@H]1CCC(C)=C[C@@H]21 [THC, Tetrahydrocannabinol]	pro-convulsant										
C=C(C)[C@@H]1CCC(C)=C[C@H]1c1c(O)cc(CCCCC)cc1O [CBD, Cannabidiol]		able to prevent seizures	4	ineffective in controlling seizures	insoluble in water	36% (n = 10)	two	unchanged	has anticonvulsant efficacy in multiple species and models	54% (n = 74)	25% (n = 2)

Source: patent US11311498B2, “Use of cannabinoids in the treatment of epilepsy” (GW Pharma Limited, priority 2014, dated 2022)
